The target of this experiment is T1, rCETP (Homo sapiens, UniProt P11597).
T1 sequence (P11597 18-493): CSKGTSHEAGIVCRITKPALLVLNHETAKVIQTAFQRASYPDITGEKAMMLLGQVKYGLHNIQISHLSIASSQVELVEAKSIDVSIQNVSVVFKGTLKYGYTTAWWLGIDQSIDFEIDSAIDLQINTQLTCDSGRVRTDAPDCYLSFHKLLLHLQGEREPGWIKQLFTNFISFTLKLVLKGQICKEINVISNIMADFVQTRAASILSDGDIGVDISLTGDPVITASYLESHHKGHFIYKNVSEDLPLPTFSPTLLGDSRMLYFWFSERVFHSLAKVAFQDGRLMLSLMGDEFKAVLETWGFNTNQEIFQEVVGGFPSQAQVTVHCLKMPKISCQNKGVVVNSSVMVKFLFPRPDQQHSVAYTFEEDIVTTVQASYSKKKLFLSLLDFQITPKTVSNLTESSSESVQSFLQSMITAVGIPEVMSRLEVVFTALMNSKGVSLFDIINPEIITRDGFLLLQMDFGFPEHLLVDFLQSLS
Description: In vitro CETP inhibition assay, fluorometric kit (ROAR Biomedicals). Format: biochemical. To be noted: rCETP 50 ng, 37° C., 90 minutes, fluorescence Ex 492 nm / Em 516 nm; read-out: IC50 (nM), inhibitory effect on CETP. The source says: An in vitro cholesteryl ester transfer protein inhibition (CETP) assay using a commercially available fluorometric assay kit from ROAR Biomedicals, USA was used to measure the CETP inhibition activity of the compounds of this application. This assay kit uses a donor molecule containing a fluorescent self-quenched neutral lipid that is transferred to an acceptor molecule in the presence of CETP enzyme. The CETP-mediated transfer of the fluorescent neutral lipid to the acceptor molecule results in an increase in fluorescence (Excitation: 492 nm; Emission: 516 nm).
A 20 mM stock solution of compounds were prepared in 100% DMSO and further dilutions were made such that the final concentration of DMSO in the reaction mix was 1%. […] The assay was performed in 96 well microplates and in each well, the reaction mixture contained 190 μl of assay buffer (150 mM NaCl, 10 mM Tris and 2 mM EDTA, pH-7.4), 4 μl of donor particle, 4 IA of acceptor particle, rCETP (50 ng) and 2 μl of test compound at varying final concentration of 0.1, 1, 10, 100, 1000 & 10000 nM. Two control reactions were performed, one without test compound (positive control) and the other without the rCETP (negative control). The reactions were incubated at 37° C. for 90 minutes and the reaction plate was transferred to a PCR machine MX3005P and the fluorescence units (FLU) were quantified (Excitation: 492 nm; Emission: 516 nm).
The negative control values were subtracted from the positive control as well as all the test values to correct for background fluorescence. The percentage inhibition of activity is calculated by using the following equation: % Inhibition of CETP activity=[100−(100×(FLU in test/FLU in positive control))].
The half maximal inhibitory concentration (IC50) was determined using the BIOGRAPH software (version no. 3.3).
For `CC1(C)CCc2cc(CN(Cc3cc(C(F)(F)F)cc(C(F)(F)F)c3)c3ncc(N4CCCC4=O)cn3)c(N(CC3CC3)CC3CC3)nc21` [Example 2, 1-(2-(((2-(bis(cyclopropylmethyl)amino)-7,7-dimethyl-6,7-dihydro-5H-cyclopenta[b]pyridin-3-yl)methyl)(3,5-bis(trifluoromethyl)benzyl)amino)pyrimidin-5-yl) pyrrolidin-2-one], the IC50 is around 29 nM.

As for `CC1(C)CCc2cc(CN(Cc3cc(C(F)(F)F)cc(C(F)(F)F)c3)c3ncc(N4CCOCC4)cn3)c(N(CC3CC3)CC3CC3)nc21` [Example 3, 3-(((3,5-bis(trifluoromethyl)benzyl)(5-morpholinopyrimidin-2-yl)amino)methyl)-N,N-bis(cyclopropylmethyl)-7,7-dimethyl-6,7-dihydro-5H-cyclopenta[b]pyridin-2-amine], the IC50 was around 20 nM.

In the case of `CC(=O)c1cnc(N(Cc2cc(C(F)(F)F)cc(C(F)(F)F)c2)Cc2cc3c(nc2N(CC2CC2)CC2CC2)C(C)(C)CC3)nc1` [Example 4, 1-(2-(((2-(bis(cyclopropylmethyl)amino)-7,7-dimethyl-6,7-dihydro-5H-cyclopenta[b]pyridin-3-yl)methyl)(3,5-bis(trifluoromethyl)benzyl)amino)pyrimidin-5-yl)ethanone], the IC50 was around 50 nM.

Turning to `CC1(C)CCc2cc(CN(Cc3cc(C(F)(F)F)cc(C(F)(F)F)c3)c3ncc(-c4cc[nH]n4)cn3)c(N(CC3CC3)CC3CC3)nc21` [Example 6, 3-(((5-(1H-pyrazol-3-yl)pyrimidin-2-yl)(3,5-bis(trifluoromethyl)benzyl)amino)methyl)-N,N-bis(cyclopropylmethyl)-7,7-dimethyl-6,7-dihydro-5H-cyclopenta[b]pyridin-2-amine], the IC50 is around 29 nM. For `CC1(C)CCc2cc(CN(Cc3cc(C(F)(F)F)cc(C(F)(F)F)c3)c3ncc(-c4ccon4)cn3)c(N(CC3CC3)CC3CC3)nc21` [Example 7, 3-(((3,5-bis(trifluoromethyl)benzyl)(5-(isoxazol-3-yl)pyrimidin-2-yl)amino)methyl)-N,N-bis(cyclopropylmethyl)-7,7-dimethyl-6,7-dihydro-5H-cyclopenta[b]pyridin-2-amine] the value was around 33 nM; for `CC1(C)CCc2cc(CN(Cc3cc(C(F)(F)F)cc(C(F)(F)F)c3)c3ncc(C(N)=O)cn3)c(N(CC3CC3)CC3CC3)nc21` [Example 9, 2-(((2-(bis(cyclopropylmethyl)amino)-7,7-dimethyl-6,7-dihydro-5H-cyclopenta[b]pyridin-3-yl)methyl)(3,5-bis(trifluoromethyl)benzyl)amino) pyrimidine-5-carboxamide], around 94 nM.

Turning to `CC1CCc2cc(CN(Cc3cc(C(F)(F)F)cc(C(F)(F)F)c3)c3ncc(N4CCOCC4)cn3)c(N(CC3CC3)CC3CC3)nc21` (stereo not drawn) [Example 10, 3-(((3,5-bis(trifluoromethyl)benzyl)(5-morpholinopyrimidin-2-yl)amino)methyl)-N,N-bis(cyclopropylmethyl)-7-methyl-6,7-dihydro-5H-cyclopenta[b]pyridin-2-amine], the IC50 is around 90 nM. For `CC1CCCc2cc(CN(Cc3cc(C(F)(F)F)cc(C(F)(F)F)c3)c3ncc(N4CCOCC4)cn3)c(N(CC3CC3)CC3CC3)nc21` (stereo not drawn) [Example 11, 3-(((3,5-bis(trifluoromethyl)benzyl)(5-morpholinopyrimidin-2-yl)amino)methyl)-N,N-bis(cyclopropylmethyl)-8-methyl-5,6,7,8-tetrahydroquinolin-2-amine] the value was around 40 nM; for `CC1(C)CCc2cc(CN(Cc3cc(C(F)(F)F)cc(C(F)(F)F)c3)c3ccc4[nH]c(=O)oc4c3)c(N(CC3CC3)CC3CC3)nc21` [Example 17, 6-(((2-(bis(cyclopropylmethyl)amino)-7,7-dimethyl-6,7-dihydro-5H-cyclopenta[b]pyridin-3-yl)methyl)(3,5-bis(trifluoromethyl)benzyl)amino)benzo[d]oxazol-2(3H)-one], around 16 nM.

By IC50 is commonly meant the concentration that gives 50% inhibition.

The record behind these values is US9199967B2, “Substituted heterocyclic amine compounds as cholestryl ester-transfer protein (CETP) inhibitors” (Dr. Reddy's Laboratories Ltd., priority 2011, dated 2015).
